{
  "source": "patent US6632831B2",
  "about": "“Branched chain amino acid-dependent aminotransferase inhibitors and their use in the treatment of neurodegenerative diseases” (Pfizer Inc., priority 2001, dated 2003)",
  "key": {"[1]": {"molecular_target": "T1, human Branched Chain Amino Acid Aminotransferase cytosolic form (hBCATc) (Homo sapiens, UniProt P54687)", "T1 construct": "inferred from purification on a Ni-charged chelating column with imidazole elution; made in house; host or cells: E. coli BL21(DE3)", "T1 sequence (P54687 1-386)": "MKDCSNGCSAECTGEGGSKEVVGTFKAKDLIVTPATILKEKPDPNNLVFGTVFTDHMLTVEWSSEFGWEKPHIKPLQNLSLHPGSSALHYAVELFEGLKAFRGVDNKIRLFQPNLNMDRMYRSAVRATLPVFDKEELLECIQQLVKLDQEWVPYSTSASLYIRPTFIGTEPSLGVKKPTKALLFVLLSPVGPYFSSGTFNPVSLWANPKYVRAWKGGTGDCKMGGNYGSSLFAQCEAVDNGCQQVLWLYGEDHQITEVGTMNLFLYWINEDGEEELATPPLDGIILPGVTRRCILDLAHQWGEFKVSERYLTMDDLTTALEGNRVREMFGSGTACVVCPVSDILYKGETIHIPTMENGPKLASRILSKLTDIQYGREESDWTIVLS", "test": "In vitro coupled enzyme assay, hBCATc", "type": "biochemical", "conditions": "37° C., 25 mM phosphate buffer pH 7.8; coupled glutamate dehydrogenase assay; read-out: hBCATc I50", "method": "In vitro enzyme assay—human Branched Chain Amino Acid Aminotransferase cytosolic form (hBCATc) and mitochondrial form (hBCATm) were assayed at 37° C. in 25 mM phosphate buffer pH 7.8. In addition, 2 mM DTT and 12.5 mM EDTA were added to the assay mixture. A coupling enzyme assay was used to monitor the production of glutamate. The formation of NADH from NAD+at […] was followed on a 96-well plate Molecular Devices plate reader. The following components were used in this coupled assay: 4 mM ADP, 1 mM NAD+, 750 μM L-Leucine, 500 μM (α-ketoglutarate, 10 μM pyridoxal phosphate, 1 unit glutamate dehydrogenase, and 1.25 μg of the appropriate BCAT enzyme. Inhibitions by compounds were assayed by adding various concentrations to this coupled assay procedure as a DMSO stock up to a 5% v/v DMSO/buffer ratio. Data is shown in Table 1.\nEnzyme Preparation—humanBCATc was expressed in BL21(DE3) cells. A growing culture of cells was induced with 1 mM IPTG at room temperature overnight. These cells were harvested by centrifugation at 10,000 g for 20 minutes. The supernatant was discarded, and the cells were stored at −80° C. until needed. The protein was purified by the following method. The cell paste was resuspended in extraction buffer (0.1 M phosphate, pH 8.0, with 0.01 M Tris-HCL and 5 mM TCEP and then lysed on a French Press at 1000 psi. The lysate was centrifuged at 10,000 g for 15 minutes, and the pellet was discarded. The supernatant was loaded onto a Hitrap Chelating column previously charged with 0.1 M NiSO4 and washed with 3 to 4 column volumes of extraction buffer. The column was then washed with 0.01 Tris, pH 7.5, 10% glycerol, 150 mM NaCl, 5 mM TCEP for two column volumes. The column was then further washed with two column volumes of 0.1 M phosphate, pH 6.0, 0.01 M Tris, 10% glycerol and 750 mM NaCl. Finally, the column was washed with two column volumes of the same buffer plus 50 mM imidazole. The BCAT enzyme was then eluted with the same buffer but with 350 mM imidazole. The eluant was then dialyzed overnight against 10 mM phosphate buffer pH 8.0, 10% glycerol, and 5 mM TCEP. The dialyzed protein was then loaded onto a Q-sepharose column and eluted using a salt gradient. Active fractions were collected and further purified on a Superose-12 column to yield pure BCAT protein."}},
  "note": "pIC50: −log10 of the molar value.",
  "data": [
    {"smiles": "COC(=O)/C=C1\\SC(Nc2ccccc2Cl)=NC1=O", "note": "[Example 15, [2-(2-Chloro-phenylamino)-4-oxo-4H-thiazol-5-ylidene]-acetic Acid Methyl Ester]", "values": [
      {"measurement": "pIC50", "setting": "[1]", "value": 4.71},
      {"measurement": "melting point", "value": "194 to 194.6", "unit": "°C"}
    ]}
  ]
}
